Source: PubChem BioAssay (NCI)
“And” between values parts separate entries of the source, which are not always exact repeats. Identical values can stand only once.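 Values below derive from 48-hour exposures of cells grown in 96-well plates, with endpoints linearly interpolated between the two concentrations bracketing the appropriate inhibition level. The concentration for 50% growth inhibition is given as GI50. TGI: concentration producing complete growth inhibition.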

Experiments:
Test in all cases: NCI tumour cell line growth inhibition, 48 h
KM20L2 colon = tested on: KM20L2 colon
MDA-MB-231 breast = tested on: MDA-MB-231 breast
OVCAR-8 ovarian = tested on: OVCAR-8 ovarian
MDA-N = tested on: MDA-N
SK-OV-3 ovarian = tested on: SK-OV-3 ovarian
IGROV1 ovarian = tested on: IGROV1 ovarian
MCF7 breast = tested on: MCF7 breast
HL-60(TB) leukemia = tested on: HL-60(TB) leukemia
A498 renal = tested on: A498 renal
MDA-MB-435 = tested on: MDA-MB-435
HOP-92 NSCLC = tested on: HOP-92 NSCLC
LOX IMVI melanoma = tested on: LOX IMVI melanoma
SF-539 CNS = tested on: SF-539 CNS
TK-10 renal = tested on: TK-10 renal
HCT-15 colon = tested on: HCT-15 colon
UO-31 renal = tested on: UO-31 renal
CCRF-CEM leukemia = tested on: CCRF-CEM leukemia
SN12K1 renal = tested on: SN12K1 renal
M19-MEL melanoma = tested on: M19-MEL melanoma
HOP-62 NSCLC = tested on: HOP-62 NSCLC
SN12C renal = tested on: SN12C renal
NCI-H522 lung = tested on: NCI-H522 lung
NCI-H226 lung = tested on: NCI-H226 lung
DLD-1 colon = tested on: DLD-1 colon
RXF 393 renal = tested on: RXF 393 renal
XF 498 CNS = tested on: XF 498 CNS
OVCAR-3 ovarian = tested on: OVCAR-3 ovarian
DU-145 prostate = tested on: DU-145 prostate
786-0 renal = tested on: 786-0 renal
SNB-19 CNS = tested on: SNB-19 CNS
P388/ADR leukemia = tested on: P388/ADR leukemia
K-562 leukemia = tested on: K-562 leukemia
PC-3 prostate = tested on: PC-3 prostate
NCI-H460 lung = tested on: NCI-H460 lung
SNB-75 CNS = tested on: SNB-75 CNS
M14 melanoma = tested on: M14 melanoma
SK-MEL-2 melanoma = tested on: SK-MEL-2 melanoma
SK-MEL-28 melanoma = tested on: SK-MEL-28 melanoma
HCC-2998 colon = tested on: HCC-2998 colon
P388 leukemia = tested on: P388 leukemia
T-47D breast = tested on: T-47D breast
HT29 colon = tested on: HT29 colon
DMS 114 small cell lung = tested on: DMS 114 small cell lung
LXFL 529 NSCLC = tested on: LXFL 529 NSCLC
KM12 colon = tested on: KM12 colon
ACHN renal = tested on: ACHN renal
U251 CNS = tested on: U251 CNS
OVCAR-4 ovarian = tested on: OVCAR-4 ovarian
HOP-18 NSCLC = tested on: HOP-18 NSCLC
SR leukemia = tested on: SR leukemia
HS 578T breast = tested on: HS 578T breast
OVCAR-5 ovarian = tested on: OVCAR-5 ovarian
DMS 273 small cell lung = tested on: DMS 273 small cell lung
COLO 205 colon = tested on: COLO 205 colon

With `CCOC(=O)C(CC(C)C)NC(=O)C(Cc1ccc(N(CCCl)CCCl)cc1)NC(C)=O` (stereo unspecified) the GI50 (KM20L2 colon) was 13.8 µM, the TGI (KM20L2 colon) was 29.7 µM and 46.9 µM and the TGI (MDA-MB-231 breast) was 23.2 µM. The GI50 (OVCAR-8 ovarian) was 12.1 µM, the TGI (OVCAR-8 ovarian) was 30.8 µM and 55.2 µM and the TGI (MDA-N) was 6.91 µM. For the same compound, the GI50 (SK-OV-3 ovarian) was 21.7 µM, the TGI (SK-OV-3 ovarian) was 58.6 µM and 35.5 µM and the TGI (IGROV1 ovarian) was 33.2 µM and 29.3 µM. The TGI (MCF7 breast) was 25.9 µM, the GI50 (HL-60(TB) leukemia) was 2.07 µM and the TGI (HL-60(TB) leukemia) was 28.7 µM and 3.32 µM. The GI50 (A498 renal) was 18.4 µM, the TGI (A498 renal) was 37 µM and 48.4 µM and the TGI (MDA-MB-435) was 11.5 µM. The GI50 (HOP-92 NSCLC) was 1.25 µM, the TGI (HOP-92 NSCLC) was 3.75 µM and 1.4 µM and the GI50 (LOX IMVI melanoma) was 3.34 µM. The TGI (LOX IMVI melanoma) was 15.1 µM and 12.5 µM, the TGI (SF-539 CNS) was 10.6 µM and 9.63 µM and the TGI (TK-10 renal) was 30.2 µM and 32.2 µM. The TGI (HCT-15 colon) was 43.1 µM, the GI50 (UO-31 renal) was 13.2 µM and the TGI (UO-31 renal) was 73 µM and 20.4 µM. It also gave a GI50 (CCRF-CEM leukemia) of 2.52 µM, a TGI (SN12K1 renal) of 10.4 µM and a GI50 (M19-MEL melanoma) of 6.3 µM. The TGI (M19-MEL melanoma) was 19.3 µM and 15.9 µM, the GI50 (HOP-62 NSCLC) was 6.09 µM and the TGI (HOP-62 NSCLC) was 23.1 µM and 14.2 µM. For the same compound, the GI50 (SN12C renal) was 4.59 µM, the TGI (SN12C renal) was 17.2 µM and 14.6 µM and the GI50 (NCI-H522 lung) was 2.52 µM. The TGI (NCI-H522 lung) was 8.68 µM and 3.87 µM, the GI50 (NCI-H226 lung) was 12.2 µM and the TGI (NCI-H226 lung) was 28.3 µM and 41.1 µM. For the same compound, the GI50 (DLD-1 colon) was 5.4 µM and 8.64 µM, the TGI (DLD-1 colon) was 21.1 µM and 31.3 µM and the GI50 (RXF 393 renal) was 2.57 µM. For the same compound, the TGI (RXF 393 renal) was 6.75 µM and 4.46 µM, the TGI (XF 498 CNS) was 1.14 µM and the GI50 (OVCAR-3 ovarian) was 15.1 µM. For the same compound, the TGI (OVCAR-3 ovarian) was 29.2 µM and 13.7 µM, the TGI (DU-145 prostate) was 21.9 µM and the GI50 (786-0 renal) was 4.11 µM. The TGI (786-0 renal) was 16.6 µM and 8.47 µM, the GI50 (SNB-19 CNS) was 19.7 µM and the TGI (SNB-19 CNS) was 81.8 µM and 42.7 µM. For the same compound, the TGI (P388/ADR leukemia) was 10.5 µM, the GI50 (K-562 leukemia) was 11.6 µM and the TGI (K-562 leukemia) was 49.7 µM and 54.6 µM. For the same compound, the TGI (PC-3 prostate) was 57.8 µM, the TGI (NCI-H460 lung) was 14.1 µM and 17.6 µM and the GI50 (SNB-75 CNS) was 8.51 µM. For the same compound, the TGI (SNB-75 CNS) was 21.7 µM and 24.9 µM, the GI50 (M14 melanoma) was 4.13 µM and the TGI (M14 melanoma) was 15.8 µM and 8.08 µM. The GI50 (SK-MEL-2 melanoma) was 1.81 µM, the TGI (SK-MEL-2 melanoma) was 4.74 µM and 5.49 µM and the GI50 (SK-MEL-28 melanoma) was 14.6 µM. The TGI (SK-MEL-28 melanoma) was 31.2 µM and 19.3 µM, the GI50 (HCC-2998 colon) was 17.2 µM and the TGI (HCC-2998 colon) was 31.5 µM and 30.6 µM. The TGI (P388 leukemia) was 10.6 µM, the TGI (T-47D breast) was 11.2 µM and the GI50 (HT29 colon) was 14.9 µM. For the same compound, the TGI (HT29 colon) was 36.7 µM and 31.8 µM, the GI50 (DMS 114 small cell lung) was 1.37 µM and the TGI (DMS 114 small cell lung) was 12.2 µM and 7.05 µM. For the same compound, the TGI (LXFL 529 NSCLC) was 26.5 µM, the GI50 (KM12 colon) was 17.8 µM and the TGI (KM12 colon) was 37.5 µM and 44.7 µM. The GI50 (ACHN renal) was 3.7 µM, the TGI (ACHN renal) was 16 µM and 9.63 µM and the GI50 (U251 CNS) was 10.2 µM. The TGI (U251 CNS) was 26.2 µM and 27 µM, the GI50 (OVCAR-4 ovarian) was 16.1 µM and the TGI (OVCAR-4 ovarian) was 29.5 µM and 27.1 µM. For the same compound, the TGI (HOP-18 NSCLC) was 33.7 µM, the GI50 (SR leukemia) was 1.04 µM and 0.895 µM and the TGI (SR leukemia) was 10.8 µM and 7 µM. The TGI (HS 578T breast) was 20.2 µM, the TGI (OVCAR-5 ovarian) was 32 µM and 33.5 µM and the TGI (DMS 273 small cell lung) was 20.1 µM and 24.9 µM. The GI50 (COLO 205 colon) was 7.01 µM and the TGI (COLO 205 colon) was 19.8 µM and 13 µM.
